Data as given in patent US9340590B2 (priority 2011, dated 2016).
Read-outs that look alike come from different tables or passages of the source. Positions of bridges follow the written chain, without caps; N, C: chain ends. Non-standard residues stand in square brackets, D forms with d. Residues, ends and D or L forms follow the SMILES beside them. *: point of attachment. Biotin = O=C1N[C@H]2[C@H](CS[C@H]2CCCCC(=O)*)N1; Abu = CC[C@H](N)C(=O)O; Ahx = NCCCCCC(=O)O

What was measured:
Experiment in all cases: cell-based
[1] = biological target: T1, hNav1.7 (Homo sapiens, UniProt Q15858); conditions: for IC50: read-out: Nav1.7 Use IC50
T1 sequence (Q15858 whole entry, looked up): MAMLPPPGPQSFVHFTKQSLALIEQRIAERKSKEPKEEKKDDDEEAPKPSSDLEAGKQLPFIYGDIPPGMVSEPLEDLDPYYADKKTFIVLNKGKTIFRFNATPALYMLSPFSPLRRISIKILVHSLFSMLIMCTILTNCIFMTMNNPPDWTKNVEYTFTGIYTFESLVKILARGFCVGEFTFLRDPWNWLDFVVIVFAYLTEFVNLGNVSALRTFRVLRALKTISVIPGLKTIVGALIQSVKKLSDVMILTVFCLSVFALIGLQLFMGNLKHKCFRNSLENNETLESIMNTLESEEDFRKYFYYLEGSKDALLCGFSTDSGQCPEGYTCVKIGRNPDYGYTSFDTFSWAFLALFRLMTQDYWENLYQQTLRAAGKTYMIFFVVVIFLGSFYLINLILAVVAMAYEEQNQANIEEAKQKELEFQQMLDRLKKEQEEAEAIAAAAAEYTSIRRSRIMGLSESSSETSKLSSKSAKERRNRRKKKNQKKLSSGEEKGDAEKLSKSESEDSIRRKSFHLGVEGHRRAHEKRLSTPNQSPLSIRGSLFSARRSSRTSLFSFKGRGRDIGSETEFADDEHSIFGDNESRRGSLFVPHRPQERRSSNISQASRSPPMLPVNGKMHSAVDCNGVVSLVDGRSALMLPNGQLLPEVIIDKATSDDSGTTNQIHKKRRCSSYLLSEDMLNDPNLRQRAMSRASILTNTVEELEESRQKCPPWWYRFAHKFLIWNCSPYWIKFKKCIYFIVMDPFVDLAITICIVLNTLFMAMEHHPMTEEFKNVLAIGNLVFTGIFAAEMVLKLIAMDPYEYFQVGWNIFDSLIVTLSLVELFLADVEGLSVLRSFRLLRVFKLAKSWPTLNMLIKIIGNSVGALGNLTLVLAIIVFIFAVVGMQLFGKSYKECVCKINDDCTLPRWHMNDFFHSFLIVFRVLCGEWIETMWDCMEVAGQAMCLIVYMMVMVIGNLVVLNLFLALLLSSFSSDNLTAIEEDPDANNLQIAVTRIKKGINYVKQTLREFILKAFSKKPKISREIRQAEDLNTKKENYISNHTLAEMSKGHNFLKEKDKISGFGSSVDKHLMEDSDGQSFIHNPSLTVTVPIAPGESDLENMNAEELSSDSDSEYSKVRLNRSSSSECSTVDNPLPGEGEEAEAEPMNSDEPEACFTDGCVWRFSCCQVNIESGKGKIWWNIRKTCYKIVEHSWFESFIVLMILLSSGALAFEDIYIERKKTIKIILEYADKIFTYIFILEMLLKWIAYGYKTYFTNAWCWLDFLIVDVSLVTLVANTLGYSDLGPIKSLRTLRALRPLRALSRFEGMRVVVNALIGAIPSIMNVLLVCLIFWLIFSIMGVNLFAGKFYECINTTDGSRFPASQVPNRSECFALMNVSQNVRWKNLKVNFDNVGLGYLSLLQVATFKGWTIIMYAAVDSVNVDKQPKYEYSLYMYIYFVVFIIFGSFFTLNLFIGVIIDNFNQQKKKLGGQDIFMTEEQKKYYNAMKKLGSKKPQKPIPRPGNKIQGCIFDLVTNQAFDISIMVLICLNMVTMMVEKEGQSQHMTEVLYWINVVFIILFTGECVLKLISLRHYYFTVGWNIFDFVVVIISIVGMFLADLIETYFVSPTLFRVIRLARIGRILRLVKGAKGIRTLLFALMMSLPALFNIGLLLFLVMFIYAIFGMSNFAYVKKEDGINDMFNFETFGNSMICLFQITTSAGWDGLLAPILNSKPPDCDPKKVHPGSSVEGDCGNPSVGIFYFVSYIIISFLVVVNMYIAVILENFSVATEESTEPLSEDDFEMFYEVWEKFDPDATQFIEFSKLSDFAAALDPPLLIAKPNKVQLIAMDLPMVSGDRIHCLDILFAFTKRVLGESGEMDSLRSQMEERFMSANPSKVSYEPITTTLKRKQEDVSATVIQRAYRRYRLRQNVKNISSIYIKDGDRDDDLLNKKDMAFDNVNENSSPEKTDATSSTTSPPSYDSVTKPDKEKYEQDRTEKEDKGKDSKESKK

[2] = biological target: hNav1.3 (Homo sapiens, UniProt Q9NY46); conditions: IonWorks Quattro, use-dependent block, hNav1.3; read-out: IWQ Use Nav1.3
hNav1.3, sequence (Q9NY46 whole entry, looked up): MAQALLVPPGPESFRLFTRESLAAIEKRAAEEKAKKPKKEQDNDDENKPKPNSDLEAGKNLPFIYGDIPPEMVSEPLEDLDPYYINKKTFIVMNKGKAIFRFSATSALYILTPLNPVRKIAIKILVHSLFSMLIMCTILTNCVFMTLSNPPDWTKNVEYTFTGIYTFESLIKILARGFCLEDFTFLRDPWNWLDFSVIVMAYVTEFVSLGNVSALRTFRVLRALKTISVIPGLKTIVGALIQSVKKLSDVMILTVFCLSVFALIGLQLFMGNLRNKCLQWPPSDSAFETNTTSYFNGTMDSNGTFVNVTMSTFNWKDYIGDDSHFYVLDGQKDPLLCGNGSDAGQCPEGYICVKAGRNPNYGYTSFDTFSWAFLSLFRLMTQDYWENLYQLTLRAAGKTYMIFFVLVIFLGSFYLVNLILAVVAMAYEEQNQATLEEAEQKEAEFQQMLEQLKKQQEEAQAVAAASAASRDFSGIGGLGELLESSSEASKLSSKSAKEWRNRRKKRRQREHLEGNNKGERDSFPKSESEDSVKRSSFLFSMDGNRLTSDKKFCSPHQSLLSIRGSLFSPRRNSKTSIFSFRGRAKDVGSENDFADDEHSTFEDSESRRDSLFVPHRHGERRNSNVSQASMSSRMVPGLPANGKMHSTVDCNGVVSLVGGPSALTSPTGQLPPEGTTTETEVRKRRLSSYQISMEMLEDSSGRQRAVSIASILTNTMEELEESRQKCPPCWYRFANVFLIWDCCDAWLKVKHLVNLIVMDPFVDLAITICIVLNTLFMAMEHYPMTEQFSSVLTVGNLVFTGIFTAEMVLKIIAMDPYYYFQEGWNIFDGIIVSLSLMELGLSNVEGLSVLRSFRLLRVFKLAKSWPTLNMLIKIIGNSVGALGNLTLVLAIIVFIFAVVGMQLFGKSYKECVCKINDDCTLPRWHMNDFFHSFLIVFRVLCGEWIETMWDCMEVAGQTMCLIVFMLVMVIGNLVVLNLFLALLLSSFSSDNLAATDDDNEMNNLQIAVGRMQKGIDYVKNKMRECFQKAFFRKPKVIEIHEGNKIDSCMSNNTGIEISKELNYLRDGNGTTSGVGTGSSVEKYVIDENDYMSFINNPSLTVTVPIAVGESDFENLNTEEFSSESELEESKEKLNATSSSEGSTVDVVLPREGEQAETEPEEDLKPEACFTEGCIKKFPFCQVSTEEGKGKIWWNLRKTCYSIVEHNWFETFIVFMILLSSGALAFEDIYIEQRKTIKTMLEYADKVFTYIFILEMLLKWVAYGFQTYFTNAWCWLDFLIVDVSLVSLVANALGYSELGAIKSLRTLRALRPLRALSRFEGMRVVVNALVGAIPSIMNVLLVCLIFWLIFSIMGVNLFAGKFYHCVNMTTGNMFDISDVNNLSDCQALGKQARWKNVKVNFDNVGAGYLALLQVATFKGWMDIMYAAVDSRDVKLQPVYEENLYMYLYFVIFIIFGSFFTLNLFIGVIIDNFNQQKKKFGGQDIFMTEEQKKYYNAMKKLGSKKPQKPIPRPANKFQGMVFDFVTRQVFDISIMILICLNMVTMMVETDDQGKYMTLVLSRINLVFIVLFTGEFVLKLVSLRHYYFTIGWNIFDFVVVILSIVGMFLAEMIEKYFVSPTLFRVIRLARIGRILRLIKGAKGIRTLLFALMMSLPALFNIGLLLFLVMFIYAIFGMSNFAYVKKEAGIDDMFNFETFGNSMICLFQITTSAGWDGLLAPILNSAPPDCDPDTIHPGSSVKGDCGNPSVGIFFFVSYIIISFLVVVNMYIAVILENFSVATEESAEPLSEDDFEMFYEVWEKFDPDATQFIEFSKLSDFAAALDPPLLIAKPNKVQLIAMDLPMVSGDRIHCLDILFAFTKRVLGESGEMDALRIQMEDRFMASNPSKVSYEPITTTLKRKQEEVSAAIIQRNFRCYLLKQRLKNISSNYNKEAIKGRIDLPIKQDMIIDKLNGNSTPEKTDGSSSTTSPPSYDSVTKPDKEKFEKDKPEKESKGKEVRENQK

[3] = biological target: hNav1.5 (Homo sapiens, UniProt Q14524); conditions: IonWorks Quattro, use-dependent block, hNav1.5; read-out: IWQ Use Nav1.5
[4] = biological target: T1, hNav1.7; type: cell-based; conditions: IonWorks Quattro, use-dependent block, hNav1.7; read-out: IWQ Use Nav1.7

In the case of `CC[C@@H]1NC(=O)CNC(=O)[C@H](CC(C)C)NC(=O)[C@@H](NC(=O)[C@H](CC(=O)O)NC(=O)CCCCCNC(=O)CCCC[C@@H]2SC[C@@H]3NC(=O)N[C@@H]32)CSSC[C@@H]2NC(=O)[C@@H]3CSSC[C@@H](C(=O)N[C@@H](CCCCN)C(=O)N[C@@H](Cc4ccc(O)cc4)C(=O)N[C@H](C(=O)N[C@@H](Cc4ccccc4)C(N)=O)C(C)C)NC(=O)[C@H](Cc4c[nH]c5ccccc45)NC(=O)[C@H](CCCNC(=N)N)NC(=O)[C@H](Cc4c[nH]cn4)NC(=O)[C@H]([C@@H](C)O)NC(=O)[C@H](CCCNC(=N)N)NC(=O)[C@H](CO)NC(=O)[C@H](CSSC[C@H](NC(=O)[C@H](CCCCN)NC(=O)[C@H](CCCNC(=N)N)NC(=O)[C@H](CC(C)C)NC1=O)C(=O)N[C@@H]([C@@H](C)CC)C(=O)N1CCC[C@H]1C(=O)N[C@@H](CC(=O)O)C(=O)N[C@@H](CC)C(=O)N[C@@H](CC(=O)O)C(=O)N[C@@H](CCCCN)C(=O)N3)NC(=O)[C@H](C(C)C)NC(=O)[C@H](CC(C)C)NC(=O)[C@H](CC(N)=O)NC(=O)[C@@H]1CCCN1C(=O)[C@H](CCCNC(=N)N)NC2=O` ({Biotin-Ahx}-DCLG[Abu]LRKCIPD[Abu]DKCCRPNLVCSRTHRWCKYVF-NH2; disulfide 2-17, 9-23, 16-30), the “Nav1.4/Nav1.7 Use” value [1] is reported as 2482 and the “Nav1.5/Nav1.7 Use” value [1] is reported as >909.

`CC[C@H](C)[C@@H]1NC(=O)[C@@H]2CSSC[C@@H]3NC(=O)[C@H](C(C)C)NC(=O)[C@H](CC(C)C)NC(=O)[C@H](CC(N)=O)NC(=O)[C@@H]4CCCN4C(=O)[C@H](CCCNC(=N)N)NC(=O)[C@H](CSSC[C@H](NC(=O)[C@@H](N)CC(=O)O)C(=O)N[C@@H](CC(C)C)C(=O)N[C@@H](CCCCN)C(=O)N[C@@H](Cc4ccccc4)C(=O)N[C@@H](CCSC)C(=O)N[C@@H](CCCNC(=N)N)C(=O)N[C@@H](CCCCN)C(=O)N2)NC(=O)[C@H](CSSC[C@@H](C(=O)N[C@@H](CCCCN)C(=O)N[C@@H](Cc2ccc(O)cc2)C(=O)N[C@H](C(=O)N[C@@H](Cc2ccccc2)C(N)=O)C(C)C)NC(=O)[C@H](Cc2c[nH]c4ccccc24)NC(=O)[C@H](CCCCN)NC(=O)[C@H](Cc2c[nH]cn2)NC(=O)[C@H]([C@@H](C)O)NC(=O)[C@H](CCCNC(=N)N)NC(=O)[C@H](CO)NC3=O)NC(=O)[C@H](CCCCN)NC(=O)[C@H](CC(=O)O)NC(=O)[C@H](CC(N)=O)NC(=O)[C@H](CC(=O)O)NC(=O)[C@@H]2CCCN2C1=O` [SEQ ID NO: 39] (H-DCLKFMRKCIPDNDKCCRPNLVCSRTHKWCKYVF-NH2; disulfide 2-17, 9-23, 16-30) showed an IC50 [1] of 0.006 µM.

With `CC[C@H](C)[C@@H]1NC(=O)[C@@H]2CSSC[C@@H]3NC(=O)[C@H](C(C)C)NC(=O)[C@H](CC(C)C)NC(=O)[C@H](CC(N)=O)NC(=O)[C@@H]4CCCN4C(=O)[C@H](CCCNC(=N)N)NC(=O)[C@H](CSSC[C@H](NC(=O)[C@@H](N)CC(=O)O)C(=O)N[C@@H](CC(C)C)C(=O)N[C@@H](CCCNC(=N)N)C(=O)N[C@@H](Cc4ccccc4)C(=O)N[C@@H](CCSC)C(=O)N[C@@H](CCCNC(=N)N)C(=O)N[C@@H](CCCCN)C(=O)N2)NC(=O)[C@H](CSSC[C@@H](C(=O)N[C@@H](CCCCN)C(=O)N[C@@H](Cc2ccc(O)cc2)C(=O)N[C@H](C(=O)N[C@@H](Cc2ccccc2)C(N)=O)C(C)C)NC(=O)[C@H](Cc2c[nH]c4ccccc24)NC(=O)[C@H](CCCCN)NC(=O)[C@H](Cc2c[nH]cn2)NC(=O)[C@H]([C@@H](C)O)NC(=O)[C@H](CCCNC(=N)N)NC(=O)[C@H](CO)NC3=O)NC(=O)[C@H](CCCCN)NC(=O)[C@H](CC(=O)O)NC(=O)[C@H](CC(N)=O)NC(=O)[C@H](CC(=O)O)NC(=O)[C@@H]2CCCN2C1=O` [SEQ ID NO: 63] (H-DCLRFMRKCIPDNDKCCRPNLVCSRTHKWCKYVF-NH2; disulfide 2-17, 9-23, 16-30) the IC50 [1] was 0.003 µM.

For `CC[C@H](C)[C@@H]1NC(=O)[C@@H]2CSSC[C@@H]3NC(=O)[C@H](C(C)C)NC(=O)[C@H](CC(C)C)NC(=O)[C@H](CC(N)=O)NC(=O)[C@@H]4CCCN4C(=O)[C@H](CCCNC(=N)N)NC(=O)[C@H](CSSC[C@H](NC(=O)[C@@H](N)CC(=O)O)C(=O)N[C@@H](CC(C)C)C(=O)NCC(=O)NCC(=O)N[C@@H](CCSC)C(=O)N[C@@H](CCCNC(=N)N)C(=O)N[C@@H](CCCCN)C(=O)N2)NC(=O)[C@H](CSSC[C@@H](C(=O)N[C@@H](CCCCN)C(=O)N[C@@H](Cc2ccc(O)cc2)C(=O)N[C@H](C(=O)N[C@@H](Cc2ccccc2)C(N)=O)C(C)C)NC(=O)[C@H](Cc2c[nH]c4ccccc24)NC(=O)[C@H](CCCCN)NC(=O)[C@H](Cc2c[nH]cn2)NC(=O)[C@H]([C@@H](C)O)NC(=O)[C@H](CCCNC(=N)N)NC(=O)[C@H](CO)NC3=O)NC(=O)[C@H](CCCCN)NC(=O)[C@H](CC(=O)O)NC(=O)[C@H](CC(N)=O)NC(=O)[C@H](CC(=O)O)NC(=O)[C@@H]2CCCN2C1=O` [SEQ ID NO: 265] (H-DCLGGMRKCIPDNDKCCRPNLVCSRTHKWCKYVF-NH2; disulfide 2-17, 9-23, 16-30), the IC50 [1] was 0.009 µM.

Work on `CC[C@H](C)[C@@H]1NC(=O)[C@@H]2CSSC[C@@H]3NC(=O)[C@H](C(C)C)NC(=O)[C@H](CC(C)C)NC(=O)[C@H](CC(N)=O)NC(=O)[C@@H]4CCCN4C(=O)[C@H](CCCNC(=N)N)NC(=O)[C@H](CSSC[C@H](NC(=O)[C@@H](N)CC(=O)O)C(=O)N[C@@H](CC(C)C)C(=O)NCC(=O)N[C@@H](CCSC)C(=O)N[C@@H](CCSC)C(=O)N[C@@H](CCCNC(=N)N)C(=O)N[C@@H](CCCCN)C(=O)N2)NC(=O)[C@H](CSSC[C@@H](C(=O)N[C@@H](CCCCN)C(=O)N[C@@H](Cc2ccc(O)cc2)C(=O)N[C@H](C(=O)N[C@@H](Cc2ccccc2)C(N)=O)C(C)C)NC(=O)[C@H](Cc2c[nH]c4ccccc24)NC(=O)[C@H](CCCCN)NC(=O)[C@H](Cc2c[nH]cn2)NC(=O)[C@H]([C@@H](C)O)NC(=O)[C@H](CCCNC(=N)N)NC(=O)[C@H](CO)NC3=O)NC(=O)[C@H](CCCCN)NC(=O)[C@H](CC(=O)O)NC(=O)[C@H](CC(N)=O)NC(=O)[C@H](CC(=O)O)NC(=O)[C@@H]2CCCN2C1=O` [SEQ ID NO: 268] (H-DCLGMMRKCIPDNDKCCRPNLVCSRTHKWCKYVF-NH2; disulfide 2-17, 9-23, 16-30) yielded an IC50 [1] of 0.002 µM.

With `CC[C@H](C)[C@@H]1NC(=O)[C@@H]2CSSC[C@@H]3NC(=O)[C@H](C(C)C)NC(=O)[C@H](CC(C)C)NC(=O)[C@H](CC(N)=O)NC(=O)[C@@H]4CCCN4C(=O)[C@H](CCCNC(=N)N)NC(=O)[C@H](CSSC[C@H](NC(=O)[C@@H](N)CC(=O)O)C(=O)N[C@@H](CC(C)C)C(=O)NCC(=O)N[C@@H](C)C(=O)N[C@@H](CC(C)C)C(=O)N[C@@H](CCCNC(=N)N)C(=O)N[C@@H](CCCCN)C(=O)N2)NC(=O)[C@H](CSSC[C@@H](C(=O)N[C@@H](CCCCN)C(=O)N[C@@H](Cc2ccc(O)cc2)C(=O)N[C@H](C(=O)N[C@@H](Cc2ccccc2)C(=O)O)C(C)C)NC(=O)[C@H](Cc2c[nH]c4ccccc24)NC(=O)[C@H](CCCNC(=N)N)NC(=O)[C@H](Cc2c[nH]cn2)NC(=O)[C@H]([C@@H](C)O)NC(=O)[C@H](CCCNC(=N)N)NC(=O)[C@H](CO)NC3=O)NC(=O)[C@H](CCCCN)NC(=O)[C@H](CC(=O)O)NC(=O)[C@H](CO)NC(=O)[C@H](CC(=O)O)NC(=O)[C@@H]2CCCN2C1=O` [compound 871] (H-DCLGALRKCIPDSDKCCRPNLVCSRTHRWCKYVF-OH; disulfide 2-17, 9-23, 16-30) the IC50 [2] was > 5 µM, the IC50 [3] was > 5 µM and the IC50 [4] was > 5 µM.

In the case of `CC[C@H](C)[C@@H]1NC(=O)[C@@H]2CSSC[C@@H]3NC(=O)[C@H](C(C)C)NC(=O)[C@H](CC(C)C)NC(=O)[C@H](CC(N)=O)NC(=O)[C@@H]4CCCN4C(=O)[C@H](CCCNC(=N)N)NC(=O)[C@H](CSSC[C@H](NC(=O)[C@@H](N)CC(=O)O)C(=O)N[C@@H](CC(C)C)C(=O)NCC(=O)N[C@@H](C)C(=O)N[C@@H](CC(C)C)C(=O)N[C@@H](CCCNC(=N)N)C(=O)N[C@@H](CCCCN)C(=O)N2)NC(=O)[C@H](CSSC[C@@H](C(=O)N[C@@H](CCCCN)C(=O)N[C@@H](Cc2ccc(O)cc2)C(=O)N[C@H](C(=O)N[C@@H](Cc2ccccc2)C(=O)O)C(C)C)NC(=O)[C@H](Cc2c[nH]c4ccccc24)NC(=O)[C@H](CCCNC(=N)N)NC(=O)[C@H](Cc2c[nH]cn2)NC(=O)[C@H]([C@@H](C)O)NC(=O)[C@H](CCCNC(=N)N)NC(=O)[C@H](CO)NC3=O)NC(=O)[C@H](CCCCN)NC(=O)[C@H](CC(=O)O)NC(=O)[C@H](C(C)C)NC(=O)[C@H](CC(=O)O)NC(=O)[C@@H]2CCCN2C1=O` [compound 872] (H-DCLGALRKCIPDVDKCCRPNLVCSRTHRWCKYVF-OH; disulfide 2-17, 9-23, 16-30), the IC50 [2] is reported as > 5 µM, the IC50 [3] is reported as > 5 µM and the IC50 [4] is reported as > 5 µM.

In the case of `CC[C@H](C)[C@@H]1NC(=O)[C@@H]2CSSC[C@@H]3NC(=O)[C@H](C(C)C)NC(=O)[C@H](CC(C)C)NC(=O)[C@H](CC(N)=O)NC(=O)[C@@H]4CCCN4C(=O)[C@H](CCCNC(=N)N)NC(=O)[C@H](CSSC[C@H](NC(=O)[C@@H](N)CC(=O)O)C(=O)N[C@@H](CC(C)C)C(=O)NCC(=O)N[C@@H](C)C(=O)N[C@@H](CC(C)C)C(=O)N[C@@H](CCCNC(=N)N)C(=O)N[C@@H](CCCCN)C(=O)N2)NC(=O)[C@H](CSSC[C@@H](C(=O)N[C@@H](CCCCN)C(=O)N[C@@H](Cc2ccc(O)cc2)C(=O)N[C@H](C(=O)N[C@@H](Cc2ccccc2)C(=O)O)C(C)C)NC(=O)[C@H](Cc2c[nH]c4ccccc24)NC(=O)[C@H](CCCNC(=N)N)NC(=O)[C@H](Cc2c[nH]cn2)NC(=O)[C@H]([C@@H](C)O)NC(=O)[C@H](CCCNC(=N)N)NC(=O)[C@H](CO)NC3=O)NC(=O)[C@H](CCCCN)NC(=O)[C@H](CC(=O)O)NC(=O)[C@H](Cc2ccc(O)cc2)NC(=O)[C@H](CC(=O)O)NC(=O)[C@@H]2CCCN2C1=O` [compound 873] (H-DCLGALRKCIPDYDKCCRPNLVCSRTHRWCKYVF-OH; disulfide 2-17, 9-23, 16-30), the IC50 [2] is reported as > 5 µM, the IC50 [3] is reported as > 5 µM and the IC50 [4] is reported as 4.8 µM.
